Source: patent US20080085915A1, “COMPOUNDS AND METHODS FOR THE TREATMENT OF GASTROINTESTINAL AND CENTRAL NERVOUS SYSTEM DISORDERS” (priority 2006, published 2008)

Tests used:
[1] = biological target: T1, 5-HT4 receptor (Cavia porcellus, UniProt O70528); assay: 5-HT4 Receptor Binding - Guinea Pig Striatum; conditions: radioligand [3H]GR113808 (0.70 nM)
T1 construct: from tissue; host or cells: guinea pig striatum
Description: The 5-HT4 receptor is known to be the major receptor subtype involved in the prokinetic activity of cisapride in the gut.

[2] = biological target: T2, human IKr (hERG K+ channels) (Homo sapiens, UniProt Q12809); assay: Inhibition of IKr activity, whole cell patch-clamp in HEK-293 cells expressing hERG K+ channels; format: cell-based; conditions: data normalized to % control tail IKr
T2 construct: expressed in transfected cells; host or cells: HEK-293
T2 sequence (Q12809 whole entry): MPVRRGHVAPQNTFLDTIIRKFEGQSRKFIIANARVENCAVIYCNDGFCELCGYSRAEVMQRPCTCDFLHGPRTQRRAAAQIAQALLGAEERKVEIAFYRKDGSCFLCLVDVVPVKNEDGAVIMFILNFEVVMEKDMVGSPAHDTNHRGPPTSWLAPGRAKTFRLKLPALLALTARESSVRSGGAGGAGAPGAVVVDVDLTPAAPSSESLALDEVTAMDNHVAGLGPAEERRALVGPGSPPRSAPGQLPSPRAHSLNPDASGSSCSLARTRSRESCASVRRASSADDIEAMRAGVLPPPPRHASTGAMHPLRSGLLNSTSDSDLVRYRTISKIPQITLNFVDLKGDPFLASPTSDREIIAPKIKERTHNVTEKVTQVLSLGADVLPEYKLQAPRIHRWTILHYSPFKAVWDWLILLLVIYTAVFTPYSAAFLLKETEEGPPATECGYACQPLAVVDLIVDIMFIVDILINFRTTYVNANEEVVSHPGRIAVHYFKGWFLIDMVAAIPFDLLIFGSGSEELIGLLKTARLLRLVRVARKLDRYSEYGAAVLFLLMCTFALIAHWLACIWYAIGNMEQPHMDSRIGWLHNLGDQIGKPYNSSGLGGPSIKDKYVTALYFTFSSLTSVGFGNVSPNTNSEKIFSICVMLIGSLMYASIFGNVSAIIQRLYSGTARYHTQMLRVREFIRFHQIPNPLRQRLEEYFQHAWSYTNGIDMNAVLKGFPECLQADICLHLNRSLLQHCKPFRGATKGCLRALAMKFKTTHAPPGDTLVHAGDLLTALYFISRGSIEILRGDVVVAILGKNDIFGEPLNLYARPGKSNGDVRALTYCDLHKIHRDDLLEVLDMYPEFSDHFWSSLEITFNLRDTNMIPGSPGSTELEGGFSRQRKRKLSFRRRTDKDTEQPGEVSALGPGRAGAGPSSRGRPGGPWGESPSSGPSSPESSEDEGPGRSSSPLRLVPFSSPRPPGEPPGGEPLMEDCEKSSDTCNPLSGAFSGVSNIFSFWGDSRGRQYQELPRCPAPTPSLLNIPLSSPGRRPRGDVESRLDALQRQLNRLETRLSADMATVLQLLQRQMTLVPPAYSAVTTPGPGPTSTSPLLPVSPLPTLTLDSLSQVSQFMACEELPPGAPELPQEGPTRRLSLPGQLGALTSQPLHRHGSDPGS
Procedure: The rapidly activating delayed rectifier potassium (K+) current in humans (human IKr) is a K+ channel that is encoded by the human-ether-a-go-go-related gene (hERG). Cisapride is known to produce QT interval prolongations via a blockade of IKr, and it was therefore of interest to determine whether compounds of the invention have important inhibitory effects on human IKr. The test system was mammalian HEK-293 cells expressing the hERG K+ channels, in which the potassium current was measured by whole cell patch-clamp technique.

[3] = in vivo; cited from earlier work
[4] = between July 1993 and December 1999; cited from earlier work

T1 sequence (O70528 whole entry): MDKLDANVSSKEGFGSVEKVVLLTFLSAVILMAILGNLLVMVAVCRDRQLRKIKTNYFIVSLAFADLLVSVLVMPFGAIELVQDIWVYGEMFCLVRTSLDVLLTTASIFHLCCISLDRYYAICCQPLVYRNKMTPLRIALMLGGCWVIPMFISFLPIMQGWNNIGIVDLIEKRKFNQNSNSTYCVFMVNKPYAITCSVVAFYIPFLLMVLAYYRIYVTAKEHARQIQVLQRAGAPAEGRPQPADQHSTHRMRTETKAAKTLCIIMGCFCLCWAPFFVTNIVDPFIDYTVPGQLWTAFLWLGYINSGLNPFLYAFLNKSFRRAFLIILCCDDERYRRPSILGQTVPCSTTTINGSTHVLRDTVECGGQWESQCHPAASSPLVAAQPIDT

Ki [1]	Compound	IC50 [2]	also measured
< 50 nM	COc1cc(N)c(Cl)cc1C(=O)N[C@@H]1CCN(CCN(C)Cc2ccc(C(=O)OCCN3CCCC3)cc2)C[C@@H]1OC [Compound 10, 2-(pyrrolidin-1-yl)ethyl 4-(((2-((3S,4R)-4-(4-amino-5-chloro-2-methoxybenzamido)-3-methoxypiperidin-1-yl)ethyl)(methyl)amino)methyl)benzoate]	> 25000 nM	–
< 50 nM	COc1cc(N)c(Cl)cc1C(=O)N[C@@H]1CCN(CCN(C)Cc2ccc(C(=O)OC3CCN(C)CC3)cc2)C[C@@H]1OC [Compound 11, 1-methylpiperidin-4-yl 4-(((2-((3S,4R)-4-(4-amino-5-chloro-2-methoxybenzamido)-3-methoxypiperidin-1-yl)ethyl)(methyl)amino)methyl)benzoate]	–	–
50 to 500 nM	COc1cc(N)c(Cl)cc1C(=O)N[C@@H]1CCN(CCN(C)Cc2ccc(C(=O)OCCN3CCOCC3)cc2)C[C@@H]1OC [Compound 12, 2-morpholinoethyl 4-(((2-((3S,4R)-4-(4-amino-5-chloro-2-methoxybenzamido)-3-methoxypiperidin-1-yl)ethyl)(methyl)amino)methyl)benzoate]	–	–
> 500 nM	COc1cc(N)c(Cl)cc1C(=O)N[C@@H]1CCN(CCNCc2ccc(C(=O)O)cc2)C[C@@H]1OC [Compound 23, 4-((2-((3S,4R)-4-(4-amino-5-chloro-2-methoxybenzamido)-3-methoxypiperidin-1-yl)ethylamino)methyl)benzoic acid]	–	–
50 to 500 nM	COc1cc(N)c(Cl)cc1C(=O)N[C@@H]1CCN(CCNCc2ccc(C(=O)OCCCO)cc2)C[C@@H]1OC [Compound 24, 3-hydroxypropyl 4-((2-((3S,4R)-4-(4-amino-5-chloro-2-methoxybenzamido)-3-methoxypiperidin-1-yl)ethylamino)methyl)benzoate]	–	–
< 50 nM	COc1cc(N)c(Cl)cc1C(=O)N[C@@H]1CCN(CCNCc2ccc(C(=O)OC3CCNCC3)cc2)C[C@@H]1OC [Compound 25, piperidin-4-yl 4-((2-((3S,4R)-4-(4-amino-5-chloro-2-methoxybenzamido)-3-methoxypiperidin-1-yl)ethylamino)methyl)benzoate]	> 25000 nM	–
> 500 nM	COc1cc(N)c(Cl)cc1C(=O)N[C@@H]1CCN(CCNC(=O)c2ccc(C(=O)O)cc2)C[C@@H]1OC [Compound 33, 4-(2-((3S,4R)-4-(4-amino-5-chloro-2-methoxybenzamido)-3-methoxypiperidin-1-yl)ethylcarbamoyl)benzoic acid]	> 25000 nM	–
< 50 nM	COc1cc(N)c(Cl)cc1C(=O)N[C@@H]1CCN(CCNC(=O)c2ccc(C(=O)OC3CCNCC3)cc2)C[C@@H]1OC [Compound 34, piperidin-4-yl 4-(2-((3S,4R)-4-(4-amino-5-chloro-2-methoxybenzamido)-3-methoxypiperidin-1-yl)ethylcarbamoyl)benzoate]	–	–
> 500 nM	COc1cc(N)c(Cl)cc1C(=O)N[C@@H]1CCN(CC(=O)Nc2ccc(CC(=O)O)cc2)C[C@@H]1OC [Compound 45, 2-(4-(2-((3S,4R)-4-(4-amino-5-chloro-2-methoxybenzamido)-3-methoxypiperidin-1-yl)acetamido)phenyl)acetic acid]	> 25000 nM	–
< 50 nM	CCOC(=O)Cc1ccc(NC(=O)CN2CC[C@@H](NC(=O)c3cc(Cl)c(N)cc3OC)[C@@H](OC)C2)cc1 [Compound 46, ethyl 2-(4-(2-((3S,4R)-4-(4-amino-5-chloro-2-methoxybenzamido)-3-methoxypiperidin-1-yl)acetamido)phenyl)acetate]	–	–
< 50 nM	COc1cc(N)c(Cl)cc1C(=O)N[C@@H]1CCN(CC(=O)Nc2ccc(CC(=O)OC3CCN(C)CC3)cc2)C[C@@H]1OC [Compound 47, 1-methylpiperidin-4-yl 2-(4-(2-((3S,4R)-4-(4-amino-5-chloro-2-methoxybenzamido)-3-methoxypiperidin-1-yl)acetamido)phenyl)acetate]	> 25000 nM	–
< 50 nM	COc1cc(N)c(Cl)cc1C(=O)N[C@@H]1CCN(CC(=O)Nc2ccc(CC(=O)OCCCO)cc2)C[C@@H]1OC [Compound 48, 3-hydroxypropyl 2-(4-(2-((3S,4R)-4-(4-amino-5-chloro-2-methoxybenzamido)-3-methoxypiperidin-1-yl)acetamido)phenyl)acetate]	10000 to 25000 nM	–
< 50 nM	COc1cc(N)c(Cl)cc1C(=O)N[C@@H]1CCN(CC(=O)Nc2ccc(O)cc2)C[C@@H]1OC [Compound 59, 4-amino-5-chloro-N-((3S,4R)-1-(2-(4-hydroxyphenylamino)-2-oxoethyl)-3-methoxypiperidin-4-yl)-2-methoxybenzamide]	–	–
< 50 nM	COc1cc(N)c(Cl)cc1C(=O)N[C@@H]1CCN(CC(=O)Nc2ccc(OC(C)=O)cc2)C[C@@H]1OC [Compound 60, 4-(2-((3S,4R)-4-(4-amino-5-chloro-2-methoxybenzamido)-3-methoxypiperidin-1-yl)acetamido)phenyl acetate]	–	–
> 500 nM	COc1cc(N)c(Cl)cc1C(=O)N[C@@H]1CCN(CCCc2ccc(C(=O)O)cc2)C[C@@H]1OC [Compound 66, 4-(3-((3S,4R)-4-(4-amino-5-chloro-2-methoxybenzamido)-3-methoxypiperidin-1-yl)propyl)benzoic acid]	> 25000 nM	–
< 50 nM	COc1cc(N)c(Cl)cc1C(=O)N[C@@H]1CCN(CCCc2ccc(C(=O)OCCN3CCOCC3)cc2)C[C@@H]1OC [Compound 67, 2-morpholinoethyl 4-(3-((3S,4R)-4-(4-amino-5-chloro-2-methoxybenzamido)-3-methoxypiperidin-1-yl)propyl)benzoate]	–	–
< 50 nM	COc1cc(N)c(Cl)cc1C(=O)N[C@@H]1CCN(CCCc2ccc(C(=O)OCCN3CCCC3)cc2)C[C@@H]1OC [Compound 68, 2-(pyrrolidin-1-yl)ethyl 4-(3-((3S,4R)-4-(4-amino-5-chloro-2-methoxybenzamido)-3-methoxypiperidin-1-yl)propyl)benzoate]	–	–
< 50 nM	COc1cc(N)c(Cl)cc1C(=O)N[C@@H]1CCN(CCCc2ccc(C(=O)OC3CCN(C)CC3)cc2)C[C@@H]1OC [Compound 69, 1-methylpiperidin-4-yl 4-(3-((3S,4R)-4-(4-amino-5-chloro-2-methoxybenzamido)-3-methoxypiperidin-1-yl)propyl)benzoate]	–	–
< 50 nM	COc1cc(N)c(Cl)cc1C(=O)N[C@@H]1CCN(CC(=O)Nc2ccc(C(=O)OCCO)cc2)C[C@@H]1OC [Compound 93, 2-hydroxyethyl 4-(2-((3S,4R)-4-(4-amino-5-chloro-2-methoxybenzamido)-3-methoxypiperidin-1-yl)acetamido)benzoate]	> 25000 nM	–
< 50 nM	COc1cc(N)c(Cl)cc1C(=O)N[C@@H]1CCN(CC(=O)Nc2ccc(C(=O)OCC(N)=O)cc2)C[C@@H]1OC [Compound 94, 2-amino-2-oxoethyl 4-(2-((3S,4R)-4-(4-amino-5-chloro-2-methoxybenzamido)-3-methoxypiperidin-1-yl)acetamido)benzoate]	5000 to 10000 nM	–
< 50 nM	COc1cc(N)c(Cl)cc1C(=O)N[C@@H]1CCN(CC(=O)Nc2ccc(C(=O)OCCN3CCNCC3)cc2)C[C@@H]1OC [Compound 95, 2-(piperazin-1-yl)ethyl 4-(2-((3S,4R)-4-(4-amino-5-chloro-2-methoxybenzamido)-3-methoxypiperidin-1-yl)acetamido)benzoate]	–	–
–	COc1cc(N)c(Cl)cc1C(=O)NC1CCN(CCCOc2ccc(F)cc2)CC1OC (stereo not shown) [cisapride]	–	part of dose metabolized by oxidative N-dealkylation or aromatic hydroxylation [3]: More than 90%; deaths reported [4]: 80; serious cardiac arrhythmias reportedly associated [4]: at least 341

Compound	Ki [1]	IC50 [2]	also measured
COc1cc(N)c(Cl)cc1C(=O)N[C@@H]1CCN(CC(=O)Nc2ccc(CC(=O)OC3CN4CCC3CC4)cc2)C[C@@H]1OC (stereo partly drawn) [Compound 49, quinuclidin-3-yl 2-(4-(2-((3S,4R)-4-(4-amino-5-chloro-2-methoxybenzamido)-3-methoxypiperidin-1-yl)acetamido)phenyl)acetate]	< 50 nM	–	–
